Experiment [1] addresses T1, Replicase polyprotein 1ab (Severe acute respiratory syndrome coronavirus 2, UniProt P0DTD1). The experiment can be described thus: Binding affinity to wild type SARS-COV2 main protease expressed in Escherichia coli BL21 (DE3) assessed as dissociation constant by small angle X-ray scattering analysis.
Experiment [2] concerns the target T1, Replicase polyprotein 1ab. The experiment can be described thus: Binding affinity to SARS-COV2 main protease assessed as dissociation constant by analytical ultracentrifugation analysis.
Experiment [3] addresses T1, Replicase polyprotein 1ab. The experiment can be described thus: Binding affinity to SARS-COV2 main protease assessed as dissociation constant by mass spectrometry analysis.
Experiment [4] addresses Replicase polyprotein 1ab (Severe acute respiratory syndrome coronavirus 2) (UniProt P0DTD1). The experiment can be described thus: Inhibition of wild type recombinant SARS-COV2 main protease expressed in Escherichia coli BL21 (DE3) using DABCYL-KTSAVLQSGFRKME-EDANS-NH2 as fluorogenic substrate at 1.5 to 50 uM preincubated for 10 mins followed by substrate addition by FRET assay. The note with it: dose 1.5-50 µM.

Another experiment relates to SARS-CoV-2. The experiment can be described thus: Antiviral activity against SARS-COV2 infected in African green monkey Vero E6 cells assessed as reduction of viral titer by immunofocus assay. It counts as functional, organism-based. The note with it: Severe acute respiratory syndrome coronavirus 2, Vero C1008.

The source made the active and inactive calls. The calls are words filed in the database; no cut-off is given here.

For `CC(=O)[C@@H]1CSCC(=O)N[C@H](Cc2ccc(O)cc2)C(=O)N[C@@H](CC(C)C)C(=O)N[C@@H](CCC(N)=O)C(=O)N[C@@H](Cc2ccc(O)cc2)C(=O)N[C@@H](C)C(=O)N[C@@H](C(C)C)C(=O)N[C@@H](CC(C)C)C(=O)N[C@@H](CCCNC(=N)N)C(=O)N[C@@H](Cc2c[nH]cn2)C(=O)N[C@@H](CCCCN)C(=O)N[C@@H](CCCNC(=N)N)C(=O)N[C@@H](CCCNC(=N)N)C(=O)N[C@@H](CCC(=O)O)C(=O)C1`, the figures for the dissociation constant Kd in experiment [1], in experiment [2] and in experiment [3] were 7000 nM, 2500 nM and 140 nM, respectively.
Regarding `CCOc1cc2ncc(C#N)c(Nc3ccc(F)c(Cl)c3)c2cc1NC(=O)/C=C/CN(C)C` [PELITINIB], the inhibition entry in experiment [4] was “inactive”. Moreover, the EC50 in the experiment with SARS-CoV-2 came to 1250 nM.

Source of the values: ChEMBL document CHEMBL5380815, “Probing Ligand Binding Sites on Large Proteins by Nuclear Magnetic Resonance Spectroscopy of Genetically Encoded Non-Canonical Amino Acids” (J Med Chem, 2023).
